Laboratory results as given in patent US4374138A, “Antibacterial amide compounds, compositions, and methods of use” (Warner-Lambert Company, priority 1981, dated 1983).
Values after ≈ are worked out from the molar mass of the structure shown.

Experiments:
Type in all cases: cell-based
Pseudo. Aeru UI-18 = assay: Minimal Inhibitory Concentration, Pseudo. Aeru UI-18
Entero C. IMM-11 = assay: Minimal Inhibitory Concentration, Entero C. IMM-11
E. Coli Vogel = assay: Minimal Inhibitory Concentration, E. Coli Vogel; conditions: Escherichia coli
Prot. Vulg. 1810 = assay: Minimal Inhibitory Concentration, Prot. Vulg. 1810
Serr. Mar. IMM-16 = assay: Minimal Inhibitory Concentration, Serr. Mar. IMM-16
Staph Aureus UC-76 = assay: Minimal Inhibitory Concentration, Staph Aureus UC-76; conditions: Staphylococcus aureus, UC76
Pseudo. Aeru BRK = assay: Minimal Inhibitory Concentration, Pseudo. Aeru BRK
Klebs. Pneu. MGH-2 = assay: Minimal Inhibitory Concentration, Klebs. Pneu. MGH-2
E. Coli Brig = assay: Minimal Inhibitory Concentration, E. Coli Brig; conditions: Escherichia coli
Pseudo. Aeru 28 = assay: Minimal Inhibitory Concentration, Pseudo. Aeru 28

SMILES | MIC (Pseudo. Aeru UI-18) [µg/mL] | MIC (Entero C. IMM-11) [µg/mL] | MIC (E. Coli Vogel) [µg/mL] | MIC (Prot. Vulg. 1810) [µg/mL] | MIC (Serr. Mar. IMM-16) [µg/mL] | MIC (Staph Aureus UC-76) [µg/mL] | MIC (Pseudo. Aeru BRK) [µg/mL] | MIC (Klebs. Pneu. MGH-2) [µg/mL] | MIC (E. Coli Brig) [µg/mL] | MIC (Pseudo. Aeru 28) [µg/mL]
CCOC(=O)CNC(=O)Nc1ccc2[nH]c(=O)c(C(=O)N[C@@H](C(=O)N[C@@H]3C(=O)N4[C@@H]3SC(C)(C)[C@@H]4C(=O)O)c3ccc(O)cc3)cc2c1 | 3.1 (≈ 4.55 µM) | 12.5 (≈ 18.4 µM) | 6.3 (≈ 9.26 µM) | 6.3 (≈ 9.26 µM) | 12.5 (≈ 18.4 µM) | 1.6 (≈ 2.35 µM) | 3.1 (≈ 4.55 µM) | 12.5 (≈ 18.4 µM) | 12.5 (≈ 18.4 µM) | 3.1 (≈ 4.55 µM)
CCNC(=O)CNC(=O)Nc1ccc2[nH]c(=O)c(C(=O)N[C@@H](C(=O)N[C@@H]3C(=O)N4[C@@H]3SC(C)(C)[C@@H]4C(=O)O)c3ccc(O)cc3)cc2c1 | 1.6 (≈ 2.35 µM) | 3.1 (≈ 4.56 µM) | 1.6 (≈ 2.35 µM) | 1.6 (≈ 2.35 µM) | 12.5 (≈ 18.4 µM) | 0.8 (≈ 1.18 µM) | 1.6 (≈ 2.35 µM) | 12.5 (≈ 18.4 µM) | 6.3 (≈ 9.27 µM) | 1.6 (≈ 2.35 µM)
CC1(C)S[C@@H]2[C@H](NC(=O)[C@H](NC(=O)c3cc4cc(NC(=O)NCC(N)=O)ccc4[nH]c3=O)c3ccc(O)cc3)C(=O)N2[C@H]1C(=O)O | 1.6 (≈ 2.46 µM) | 6.3 (≈ 9.67 µM) | 1.6 (≈ 2.46 µM) | 1.6 (≈ 2.46 µM) | 12.5 (≈ 19.2 µM) | 0.8 (≈ 1.23 µM) | 0.8 (≈ 1.23 µM) | 12.5 (≈ 19.2 µM) | 6.3 (≈ 9.67 µM) | 0.8 (≈ 1.23 µM)
CCNC(=O)Nc1ccc2[nH]c(=O)c(C(=O)N[C@@H](C(=O)N[C@@H]3C(=O)N4[C@@H]3SC(C)(C)[C@@H]4C(=O)O)c3ccc(O)cc3)cc2c1 [A CH3 CH2, N-[6-[[(Ethylamino)carbonyl]amino]-1,2-dihydro-2-oxo-3-quinolinylcarbonyl]amoxicillin] | 1.6 (≈ 2.57 µM) | 3.1 (≈ 4.98 µM) | 1.6 (≈ 2.57 µM) | 1.6 (≈ 2.57 µM) | 6.3 (≈ 10.1 µM) | 0.4 (≈ 0.642 µM) | 1.6 (≈ 2.57 µM) | 6.3 (≈ 10.1 µM) | 3.1 (≈ 4.98 µM) | 0.4 (≈ 0.642 µM)
CCNC(=O)Nc1ccc2[nH]cc(C(=O)N[C@@H](C(=O)N[C@@H]3C(=O)N4[C@@H]3SC(C)(C)[C@@H]4C(=O)O)c3ccc(O)cc3)c(=O)c2c1 [B CH3 CH2, N-[6-[[(Ethylamino)carbonyl]amino]-1,4-dihydro-4-oxo-3-quinolinylcarbonyl]amoxicillin] | 3.1 (≈ 4.98 µM) | 3.1 (≈ 4.98 µM) | 0.4 (≈ 0.642 µM) | 0.8 (≈ 1.28 µM) | 1.6 (≈ 2.57 µM) | 0.8 (≈ 1.28 µM) | 0.4 (≈ 0.642 µM) | 3.1 (≈ 4.98 µM) | 6.3 (≈ 10.1 µM) | 0.8 (≈ 1.28 µM)
